Assay results published in patent publication US8247211B2, “Glycopeptide antibiotics” (American Cyanamid Company, priority 2001, dated 2012).

Tests used:
Test in all cases: In vitro antibacterial evaluation: minimum inhibitory concentration (MIC), broth dilution method
Type in all cases: cell-based
Staphylococcus sp. = details: for MIC Staphylococcus aureus-SMITH (GC 4543): strain GC 4543; for MIC Staphylococcus haemolyticus (GC 4546): strain GC 4546; for MIC Coagulase Negative Staphylococcus (GC 4547): strain GC 4547; for MIC Coagulase Negative Staphylococcus (GC 4548): strain GC 4548; for MIC Coagulase Negative Staphylococcus (GC 4549): strain GC 4549; for MIC Coagulase Negative Staphylococcus (GC 4551): strain GC 4551; for MIC Coagulase Negative Staphylococcus (GC 6257): strain GC 6257; for MIC Staphylococcus aureus (ATCC 29213): strain ATCC 29213; for MIC Staphylococcus aureus (GC 1131): strain GC 1131; for MIC Staphylococcus aureus (GC 3051): strain GC 3051; for MIC Staphylococcus aureus (GC 3053): strain GC 3053; for MIC Staphylococcus aureus (GC 4541): strain GC 4541; for MIC Staphylococcus aureus (GC 4542): strain GC 4542; for MIC Staphylococcus aureus (GC 4544): strain GC 4544; for MIC Staphylococcus aureus (GC 4545): strain GC 4545
In short: (§1)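 Inoculum: 5×10^5 CFU/mL. Range: 64-0.06 μg/mL. Medium: Muller-Hinton II […]; NCCLS M7-A2 broth dilution. Endpoint: lowest concentration inhibiting growth. Strains include methicillin-, penicillin- and/or vancomycin-resistant clinical isolates.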

Streptococcus sp. = details: 18 hours at 35° C.
In short: as §1

Enterococcus sp. = details: 18 hours at 35° C.
In short: as §1

Escherichia coli = details: 18 hours at 35° C.
In short: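 Values are minimum inhibitory concentrations, meaning the smallest antibiotic concentration that stops growth of the organism. They come from broth dilution in Muller-Hinton II […] per NCCLS guidance (M7-A2), using 5×10^5 CFU/mL and concentrations from 64 to 0.06 μg/mL.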

[1] = broth dilution, 18 hours at 35° C.
[2] = broth dilution, inoculum 5×10^5 CFU/mL

Cyclo[glycyl-4-chloro-β-methylphenylalanyl-O-[4-O-(4,6-O-cyclopentylidenehexopyranosyl)-hexopyranosyl]tyrosyl-3-(2-iminoimidazolidin-4-yl)seryl-3-(3-hexopyranosyl-2-iminoimidazolidin-4-yl)serylseryl] [Example 202]
MIC Staphylococcus aureus-SMITH (GC 4543) (Staphylococcus sp.; [1]): 4 µg/mL
MIC Staphylococcus haemolyticus (GC 4546) (Staphylococcus sp.; [1]): 2 µg/mL
MIC Coagulase Negative Staphylococcus (GC 4547) (Staphylococcus sp.; [1]): 2 µg/mL
MIC Coagulase Negative Staphylococcus (GC 4548) (Staphylococcus sp.; [1]): 2 µg/mL
MIC Coagulase Negative Staphylococcus (GC 4549) (Staphylococcus sp.; [1]): 4 µg/mL
MIC Coagulase Negative Staphylococcus (GC 4551) (Staphylococcus sp.; [1]): 4 µg/mL
MIC Coagulase Negative Staphylococcus (GC 6257) (Staphylococcus sp.; [1]): 2 µg/mL
MIC Staphylococcus aureus (ATCC 29213) (Staphylococcus sp.): 4 µg/mL
MIC Staphylococcus aureus (ATCC 29213) (Staphylococcus sp.; [1]): 4 µg/mL
MIC Staphylococcus aureus (GC 1131) (Staphylococcus sp.): 4 µg/mL
MIC Staphylococcus aureus (GC 1131) (Staphylococcus sp.; [1]): 4 µg/mL
MIC Staphylococcus aureus (GC 3051) (Staphylococcus sp.): 4 µg/mL
MIC Staphylococcus aureus (GC 3051) (Staphylococcus sp.; [1]): 4 µg/mL
MIC Staphylococcus aureus (GC 3053) (Staphylococcus sp.): 8 µg/mL
MIC Staphylococcus aureus (GC 3053) (Staphylococcus sp.; [1]): 8 µg/mL
MIC Staphylococcus aureus (GC 4541) (Staphylococcus sp.): 4 µg/mL
MIC Staphylococcus aureus (GC 4541) (Staphylococcus sp.; [1]): 4 µg/mL
MIC Staphylococcus aureus (GC 4542) (Staphylococcus sp.): 4 µg/mL
MIC Staphylococcus aureus (GC 4542) (Staphylococcus sp.; [1]): 4 µg/mL
MIC Staphylococcus aureus-SMITH (GC 4543) (Staphylococcus sp.): 4 µg/mL
MIC Staphylococcus aureus (GC 4544) (Staphylococcus sp.): 4 µg/mL
MIC Staphylococcus aureus (GC 4544) (Staphylococcus sp.; [1]): 4 µg/mL
MIC Staphylococcus aureus (GC 4545) (Staphylococcus sp.): 4 µg/mL
MIC Staphylococcus aureus (GC 4545) (Staphylococcus sp.; [1]): 4 µg/mL
MIC Staphylococcus haemolyticus (GC 4546) (Staphylococcus sp.): 2 µg/mL
MIC Coagulase Negative Staphylococcus (GC 4547) (Staphylococcus sp.): 2 µg/mL
MIC Coagulase Negative Staphylococcus (GC 4548) (Staphylococcus sp.): 2 µg/mL
MIC Coagulase Negative Staphylococcus (GC 4549) (Staphylococcus sp.): 4 µg/mL
MIC Coagulase Negative Staphylococcus (GC 4551) (Staphylococcus sp.): 4 µg/mL
MIC Coagulase Negative Staphylococcus (GC 6257) (Staphylococcus sp.): 2 µg/mL
MIC Streptococcus agalactiae (GC 4564) (Streptococcus sp.; Streptococcus agalactiae (GC 4564)): 2 µg/mL
MIC Streptococcus pneumoniae (ATCC 6301) (Streptococcus sp.; Streptococcus pneumoniae (ATCC 6301)): <0.5 µg/mL
MIC Streptococcus pneumoniae (GC 1894) (Streptococcus sp.; Streptococcus pneumoniae (GC 1894)): <0.5 µg/mL
MIC Streptococcus pneumoniae (GC 4565) (Streptococcus sp.; Streptococcus pneumoniae (GC 4565)): 8 µg/mL
MIC Streptococcus pyogenes (GC 4563) (Streptococcus sp.; Streptococcus pyogenes (GC 4563)): 1 µg/mL
MIC Streptococcus agalactiae (GC 4564) (Streptococcus sp.; [2]): 2 µg/mL
MIC Streptococcus pneumoniae (ATCC 6301) (Streptococcus sp.; [2]): <0.5 µg/mL
MIC Streptococcus pneumoniae (GC 1894) (Streptococcus sp.; [2]): <0.5 µg/mL
MIC Streptococcus pneumoniae (GC 4565) (Streptococcus sp.; [2]): 8 µg/mL
MIC Streptococcus pyogenes (GC 4563) (Streptococcus sp.; [2]): 1 µg/mL
MIC Enterococcus avium (GC 4558) (Enterococcus sp.; Enterococcus avium (GC 4558)): 32 µg/mL
MIC Enterococcus faecalis (ATCC 29212) (Enterococcus sp.; Enterococcus faecalis (ATCC 29212)): 32 µg/mL
MIC Enterococcus faecalis (GC 2242) (Enterococcus sp.; Enterococcus faecalis (GC 2242)): 16 µg/mL
MIC Enterococcus faecalis (GC 2691) (Enterococcus sp.; Enterococcus faecalis (GC 2691)): 16 µg/mL
MIC Enterococcus faecalis (GC 3059) (Enterococcus sp.; Enterococcus faecalis (GC 3059)): 64 µg/mL
MIC Enterococcus faecalis (GC 4552) (Enterococcus sp.; Enterococcus faecalis (GC 4552)): 32 µg/mL
MIC Enterococcus faecalis (GC 4553) (Enterococcus sp.; Enterococcus faecalis (GC 4553)): 32 µg/mL
MIC Enterococcus faecalis (GC 4554) (Enterococcus sp.; Enterococcus faecalis (GC 4554)): 32 µg/mL
MIC Enterococcus faecalis (GC 6189) (Enterococcus sp.; Enterococcus faecalis (GC 6189)): 16 µg/mL
MIC Enterococcus faecium (GC 2243) (Enterococcus sp.; Enterococcus faecium (GC 2243)): 32 µg/mL
MIC Enterococcus faecium (GC 4556) (Enterococcus sp.; Enterococcus faecium (GC 4556)): 16 µg/mL
MIC Enterococcus faecium (GC 4557) (Enterococcus sp.; Enterococcus faecium (GC 4557)): 4 µg/mL
MIC Enterococcus avium (GC 4558) (Enterococcus sp.; [2]): 32 µg/mL
MIC Enterococcus faecalis (ATCC 29212) (Enterococcus sp.; [2]): 32 µg/mL
MIC Enterococcus faecalis (GC 2242) (Enterococcus sp.; [2]): 16 µg/mL
MIC Enterococcus faecalis (GC 2691) (Enterococcus sp.; [2]): 16 µg/mL
MIC Enterococcus faecalis (GC 3059) (Enterococcus sp.; [2]): 64 µg/mL
MIC Enterococcus faecalis (GC 4552) (Enterococcus sp.; [2]): 32 µg/mL
MIC Enterococcus faecalis (GC 4553) (Enterococcus sp.; [2]): 32 µg/mL
MIC Enterococcus faecalis (GC 4554) (Enterococcus sp.; [2]): 32 µg/mL
MIC Enterococcus faecalis (GC 6189) (Enterococcus sp.; [2]): 16 µg/mL
MIC Enterococcus faecium (GC 2243) (Enterococcus sp.; [2]): 32 µg/mL
MIC Enterococcus faecium (GC 4556) (Enterococcus sp.; [2]): 16 µg/mL
MIC Enterococcus faecium (GC 4557) (Enterococcus sp.; [2]): 4 µg/mL
MIC Escherichia coli (ATCC 25922) (Escherichia coli; Escherichia coli (ATCC 25922)): 32 µg/mL
MIC Escherichia coli (GC 4559) (Escherichia coli; Escherichia coli (GC 4559)): 16 µg/mL
MIC Escherichia coli (GC 4560) (Escherichia coli; Escherichia coli (GC 4560)): 2 µg/mL
